Bounds are passed on as bounds.

One test concerns KM12 cells. As to the kind of experiment: KM12 cell viability assay (CellTiter-Glo). The conditions noted are these: for IC50: Homo sapiens, 72 h, KM12 cells, 3 days, CellTiter-Glo; for viability of KM12 cells: 11-point 3-fold serial dilution, 3 days (FIG. 3). Format: cell-based. The protocol: The kinase activity of TRK is known to play important roles in tumors expressing TRK-fusion proteins, as TRK kinase inhibitors compromise cell proliferation, survival, and induce marked clinical responses (Amatu et al., 2016; Drilon et al., 2018; Drilon et al., 2017; Khotskaya et al., 2017). KM12 cells seeded in 96-well plates were treated with heterobifunctional compounds following a 11-point 3-fold serial dilution. Three days after treatment, cell viability was determined using the CellTiter-Glo kit, and normalized to the mean values of 3 replicates of untreated cells. Dose-dependent response was analyzed following the least-squares non-linear regression method using the GraphPad Prism software. Each data point in the figure represents the mean values of three technical replicates ±standard deviation.
KM12 cells seeded in 96-well plates were treated with heterobifunctional compounds following a 11-point 3-fold serial dilution for 3 days.
KM12, TRKA G595R mutated KM12, HEL, and other cells were cultured at 37° C. with 5% CO2 in DMEM or RPMI 1640 Medium supplemented with 10% fetal bovine serum. Cells were authenticated using the short tandem repeat (STR) assays. Mycoplasma test results were negative.
Cells were seeded at a density of 5000 cells per well in 96-well assay plates and treated with test compounds following a 11-point 3-fold serial dilution. Three days later, cell viability was determined using the CellTiter-Glo assay kit (Promega) according to the manufacturer's instructions. The dose-response curves were determined and IC50 values were calculated using the GraphPad Prism software following a nonlinear regression (least squares fit) method.

The next test concerns the target T1, TPM3-TRKA fusion protein (Homo sapiens, UniProt P04629).
T1 construct: TPM3 (N-terminal part of tropomyosin alpha-3, natural fusion partner); endogenous in cells; host or cells: KM12 colon cancer cells; the other entry of the earlier key: TPM3 (P06753, Tropomyosin alpha-3 chain)
As to the kind of experiment: TPM3-TRKA degradation in KM12 cells (Western blot). Particulars: 16 hours, TRK protein, immunoblot; for inhibition at 0.01 µM: 10 nM; for inhibition at 0.1 µM: 100 nM. The format is cell-based. The protocol: Specific exemplary heterobifunctional compounds were characterized in KM12 cells. KM12 cells that express TPM3-TRKA fusion protein were treated with 10 nM or 100 nM heterobifunctional compounds disclosed herein or their corresponding warheads/inhibitors for 16 hours. Cells were collected, lysed and subject to immunoblotting using an antibody specific to TRK proteins.
KM12 cells were treated with heterobifunctional compounds at 10 nM or 100 nM for 16 hours.
Cultured cells were washed with cold PBS once and lysed in cold RIPA buffer supplemented with protease inhibitors and phosphatase inhibitors (Beyotime Biotechnology). The solutions were then incubated at 4° C. for 30 minutes with gentle agitation to fully lyse cells. Cell lysates were centrifuged at 13,000 rpm for 10 minutes at 4° C. and pellets were discarded. Total protein concentrations in the lysates were determined by BCA assays (Beyotime Biotechnology). Cell lysates were mixed with Laemmli loading buffer to 1× and heated at 99° C. for 5 min. Proteins were resolved on SDS-PAGE and visualized by chemiluminescence. Images were taken by a ChemiDoc MP Imaging system (Bio-Rad). Protein bands were quantitated using the software provided by Bio-Rad.
The percentage of TRK protein degradation of each compound at 10 nM and 100 nM was determined in KM12 cells as described in Methods. The percentage of degradation of each compound was indicated in the following categories: N/A: data not available; −: no degradation; +: degradation less than 50%; ++: degradation equal or greater than 50% but less than […]; +++: degradation equal or greater than 80%.

T1 sequence (P04629 with tags, fused parts or gaps): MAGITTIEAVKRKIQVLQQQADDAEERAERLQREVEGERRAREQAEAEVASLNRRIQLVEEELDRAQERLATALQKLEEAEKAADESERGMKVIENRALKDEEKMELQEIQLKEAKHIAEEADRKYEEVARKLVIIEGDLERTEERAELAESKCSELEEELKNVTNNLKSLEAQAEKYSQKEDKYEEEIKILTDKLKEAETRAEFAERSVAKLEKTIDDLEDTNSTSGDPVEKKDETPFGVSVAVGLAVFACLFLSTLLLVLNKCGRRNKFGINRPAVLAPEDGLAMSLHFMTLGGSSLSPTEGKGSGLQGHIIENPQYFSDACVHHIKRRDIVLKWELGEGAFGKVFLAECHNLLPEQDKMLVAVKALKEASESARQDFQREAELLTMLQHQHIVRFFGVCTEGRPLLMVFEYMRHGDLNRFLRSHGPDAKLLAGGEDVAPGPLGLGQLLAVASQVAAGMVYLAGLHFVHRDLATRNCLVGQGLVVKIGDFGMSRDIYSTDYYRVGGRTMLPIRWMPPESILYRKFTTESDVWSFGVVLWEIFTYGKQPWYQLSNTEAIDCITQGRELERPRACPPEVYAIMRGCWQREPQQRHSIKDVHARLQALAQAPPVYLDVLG

In the test on KM12 cells, `COCCN1C[C@@H](NC(=O)Nc2c(C)c(-c3cnc(N4CCN(C(=O)CCOCCOCCOCCNc5cccc6c5C(=O)N(C5CCC(=O)NC5=O)C6=O)CC4)nc3)nn2-c2ccccc2)[C@H](c2cccc(F)c2)C1` (stereo partly drawn) [CPD-005, 1-(3-(2-(4-(3-(2-(2-(2-((2-(2,6-dioxopiperidin-3-yl)-1,3-dioxoisoindolin-4-yl)amino)ethoxy)ethoxy)ethoxy)propanoyl)piperazin-1-yl)pyrimidin-5-yl)-4-methyl-1-phenyl-1H-pyrazol-5-yl)-3-((3S,4R)-4-(3-fluorophenyl)-1-(2-methoxyethyl)pyrrolidin-3-yl)urea] gave an IC50 of 47.3 nM. In addition, on TPM3-TRKA fusion protein, the inhibition at 0.01 µM is above 80% and the inhibition at 0.1 µM was above 80%.

`COCCN1C[C@@H](NC(=O)Nc2c(C)c(-c3cnc(N4CCN(C(=O)CCCNC(=O)C[C@H](NC(=O)[C@@H]5C[C@@H](O)CN5C(=O)[C@@H](NC(=O)C5(F)CC5)C(C)(C)C)c5ccc(-c6scnc6C)cc5)CC4)nc3)nn2-c2ccccc2)[C@H](c2cccc(F)c2)C1` [CPD-013, (2S,4R)-1-((S)-2-(1-fluorocyclopropane-1-carboxamido)-3,3-dimethylbutanoyl)-N-((S)-3-((4-(4-(5-(5-(3-((3S,4R)-4-(3-fluorophenyl)-1-(2-methoxyethyl)pyrrolidin-3-yl)ureido)-4-methyl-1-phenyl-1H-pyrazol-3-yl)pyrimidin-2-yl)piperazin-1-yl)-4-oxobutyl)amino)-1-(4-(4-methylthiazol-5-yl)phenyl)-3-oxopropyl)-4-hydroxypyrrolidine-2-carboxamide]: in the test with KM12 cells, the concentration for half-maximal inhibition (IC50) worked out at 79.7 nM. At TPM3-TRKA fusion protein, the inhibition at 0.01 µM was below 50% and the inhibition at 0.1 µM lay within 50 to 800%.

Regarding `COCCN1C[C@@H](NC(=O)Nc2c(C)c(-c3cnc(N4CCN(C(=O)CCCCCOc5cc(-c6scnc6C)ccc5CNC(=O)[C@@H]5C[C@@H](O)CN5C(=O)[C@@H](NC(=O)C5(F)CC5)C(C)(C)C)CC4)nc3)nn2-c2ccccc2)[C@H](c2cccc(F)c2)C1` [CPD-020, (2S,4R)-1-((S)-2-(1-fluorocyclopropane-1-carboxamido)-3,3-dimethylbutanoyl)-N-(2-((6-(4-(5-(5-(3-((3S,4R)-4-(3-fluorophenyl)-1-(2-methoxyethyl)pyrrolidin-3-yl)ureido)-4-methyl-1-phenyl-1H-pyrazol-3-yl)pyrimidin-2-yl)piperazin-1-yl)-6-oxohexyl)oxy)-4-(4-methylthiazol-5-yl)benzyl)-4-hydroxypyrrolidine-2-carboxamide], it took 293 nM to reach half-maximal inhibition in the test with KM12 cells (IC50). At TPM3-TRKA fusion protein, the inhibition at 0.1 µM was 50 to 800%.

In the case of `COCCN1C[C@@H](NC(=O)Nc2c(C)c(-c3cnc(N4CCN(C(=O)CCCCCNC(=O)C[C@H](NC(=O)[C@@H]5C[C@@H](O)CN5C(=O)[C@@H](NC(=O)C5(F)CC5)C(C)(C)C)c5ccc(-c6scnc6C)cc5)CC4)nc3)nn2-c2ccccc2)[C@H](c2cccc(F)c2)C1` [CPD-012, (2S,4R)-1-((S)-2-(1-fluorocyclopropane-1-carboxamido)-3,3-dimethylbutanoyl)-N-((S)-3-((6-(4-(5-(5-(3-((3S,4R)-4-(3-fluorophenyl)-1-(2-methoxyethyl)pyrrolidin-3-yl)ureido)-4-methyl-1-phenyl-1H-pyrazol-3-yl)pyrimidin-2-yl)piperazin-1-yl)-6-oxohexyl)amino)-1-(4-(4-methylthiazol-5-yl)phenyl)-3-oxopropyl)-4-hydroxypyrrolidine-2-carboxamide], in the test on KM12 cells, the IC50 is 132 nM. On TPM3-TRKA fusion protein, the inhibition at 0.01 µM was below 50% and the inhibition at 0.1 µM lay in the range of 50 to 800%.

Consider `COCCN1C[C@@H](NC(=O)Nc2c(C)c(-c3cnc(N4CCN(C(=O)CCCNc5ccc6c(c5)C(=O)N(C5CCC(=O)NC5=O)C6=O)CC4)nc3)nn2-c2ccccc2)[C@H](c2cccc(F)c2)C1` (stereo partly drawn) [CPD-002, 1-(3-(2-(4-(4-((2-(2,6-dioxopiperidin-3-yl)-1,3-dioxoisoindolin-5-yl)amino)butanoyl)piperazin-1-yl)pyrimidin-5-yl)-4-methyl-1-phenyl-1H-pyrazol-5-yl)-3-((3S,4R)-4-(3-fluorophenyl)-1-(2-methoxyethyl)pyrrolidin-3-yl)urea], for which, in the test on KM12 cells, the “viability of KM12 cells” value was “inhibited the viability” and the IC50 is 9.7 nM. At TPM3-TRKA fusion protein, the inhibition at 0.01 µM is above 80% and the inhibition at 0.1 µM is above 80%.

Turning to `COCCN1C[C@@H](NC(=O)Nc2c(C)c(-c3cnc(N4CCN(C(=O)CCCCCCCNc5ccc6c(c5)C(=O)N(C5CCC(=O)NC5=O)C6=O)CC4)nc3)nn2-c2ccccc2)[C@H](c2cccc(F)c2)C1` (stereo partly drawn) [CPD-006, 1-(3-(2-(4-(8-((2-(2,6-dioxopiperidin-3-yl)-1,3-dioxoisoindolin-5-yl)amino)octanoyl)piperazin-1-yl)pyrimidin-5-yl)-4-methyl-1-phenyl-1H-pyrazol-5-yl)-3-((3S,4R)-4-(3-fluorophenyl)-1-(2-methoxyethyl)pyrrolidin-3-yl)urea], in the test with KM12 cells, the IC50 worked out at 10.3 nM. At TPM3-TRKA fusion protein, the inhibition at 0.01 µM was above 80% and the inhibition at 0.1 µM is above 80%.

Turning to `COCCN1C[C@@H](NC(=O)Nc2c(C)c(-c3cnc(N4CCN(C(=O)CNc5ccc6c(c5)C(=O)N(C5CCC(=O)NC5=O)C6=O)CC4)nc3)nn2-c2ccccc2)[C@H](c2cccc(F)c2)C1` (stereo partly drawn) [CPD-019, 1-(3-(2-(4-((2-(2,6-dioxopiperidin-3-yl)-1,3-dioxoisoindolin-5-yl)glycyl)piperazin-1-yl)pyrimidin-5-yl)-4-methyl-1-phenyl-1H-pyrazol-5-yl)-3-((3S,4R)-4-(3-fluorophenyl)-1-(2-methoxyethyl)pyrrolidin-3-yl)urea], in the test on KM12 cells, the “viability of KM12 cells” value is given as “inhibited the viability” and inhibition was half-maximal at 9.2 nM (IC50). Further, at TPM3-TRKA fusion protein, the inhibition at 0.01 µM was above 80% and the inhibition at 0.1 µM was above 80%.

With `COCCN1C[C@@H](NC(=O)Nc2c(C)c(-c3cnc(N4CCN(C(=O)CCOCCOCCOCCOCCNC(=O)C[C@H](NC(=O)[C@@H]5C[C@@H](O)CN5C(=O)[C@@H](NC(=O)C5(F)CC5)C(C)(C)C)c5ccc(-c6scnc6C)cc5)CC4)nc3)nn2-c2ccccc2)[C@H](c2cccc(F)c2)C1` [CPD-018, (2S,4R)-1-((S)-2-(1-fluorocyclopropane-1-carboxamido)-3,3-dimethylbutanoyl)-N-((S)-19-(4-(5-(5-(3-((3S,4R)-4-(3-fluorophenyl)-1-(2-methoxyethyl)pyrrolidin-3-yl)ureido)-4-methyl-1-phenyl-1H-pyrazol-3-yl)pyrimidin-2-yl)piperazin-1-yl)-1-(4-(4-methylthiazol-5-yl)phenyl)-3,19-dioxo-7,10,13,16-tetraoxa-4-azanonadecyl)-4-hydroxypyrrolidine-2-carboxamide], in the test with KM12 cells, the IC50 was 852 nM. Further, the inhibition at 0.1 µM on TPM3-TRKA fusion protein fell in the range of 50 to 800%.

The compound `COCCN1C[C@@H](NC(=O)Nc2c(C)c(-c3cnc(N4CCN(C(=O)CCCCCCCCCNC(=O)C[C@H](NC(=O)[C@@H]5C[C@@H](O)CN5C(=O)[C@@H](NC(=O)C5(F)CC5)C(C)(C)C)c5ccc(-c6scnc6C)cc5)CC4)nc3)nn2-c2ccccc2)[C@H](c2cccc(F)c2)C1` [CPD-015, (2S,4R)-1-((S)-2-(1-fluorocyclopropane-1-carboxamido)-3,3-dimethylbutanoyl)-N-((S)-3-((10-(4-(5-(5-(3-((3S,4R)-4-(3-fluorophenyl)-1-(2-methoxyethyl)pyrrolidin-3-yl)ureido)-4-methyl-1-phenyl-1H-pyrazol-3-yl)pyrimidin-2-yl)piperazin-1-yl)-10-oxodecyl)amino)-1-(4-(4-methylthiazol-5-yl)phenyl)-3-oxopropyl)-4-hydroxypyrrolidine-2-carboxamide] had an IC50 with KM12 cells of 35.5 nM. At TPM3-TRKA fusion protein, the inhibition at 0.01 µM is 50 to 800% and the inhibition at 0.1 µM lay in the range of 50 to 800%.

The record behind these values is patent US20240246955A1, “TROPOMYOSIN RECEPTOR KINASE (TRK) DEGRADATION COMPOUNDS AND METHODS OF USE” (CULLGEN (SHANGHAI), INC., priority 2021, published 2024).
